“And” between values parts separate entries of the source, which are not always exact repeats. Equal values may be shown once.
Target: T1, human TAS2R14 (Homo sapiens, UniProt Q9NYV8)
T1 construct: expressed in transfected cells; host or cells: HEK293T-Gα16gust44
T1 sequence (Q9NYV8 1-317): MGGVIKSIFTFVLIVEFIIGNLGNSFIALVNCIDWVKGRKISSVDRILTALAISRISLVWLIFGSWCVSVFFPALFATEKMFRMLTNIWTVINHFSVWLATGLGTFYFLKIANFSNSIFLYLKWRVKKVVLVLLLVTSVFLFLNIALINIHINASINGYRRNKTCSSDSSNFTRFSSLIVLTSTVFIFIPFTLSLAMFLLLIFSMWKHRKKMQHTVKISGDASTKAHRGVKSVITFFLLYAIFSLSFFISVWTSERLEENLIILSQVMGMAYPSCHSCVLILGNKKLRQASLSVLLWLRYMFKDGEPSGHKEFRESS
Assay: Calcium imaging assay (FLIPR), HEK293T-Gα16gust44 cells transfected with human TAS2R14
Type: cell-based
Conditions: for RLU: TAS2R14 trace
Summary of the method: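 Read-out is Fluo-4 fluorescence change (ΔF/F) after automated application of bile acids (DMSO stocks) to transiently transfected cells. Values are corrected for empty-vector cells and normalized to buffer. Dose-response from three independent experiments in duplicate; threshold concentration set at p < 0.01 versus mock.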

C[C@H](CCC(=O)NCCS(=O)(=O)O)[C@H]1CC[C@H]2[C@@H]3CC[C@@H]4C[C@H](O)CC[C@]4(C)[C@H]3CC[C@]12C [Taurolithocholic Acid, taurolithocholic acid]
Efficacy = maximal amplitude (ΔF/F) (TAS2R14, bile acids, mean): 0.07188 | Efficacy (maximal amplitude ΔF/F), individual data points (TAS2R14, bile acids, single replicates, listed as TLCA): 0.06981 and 0.08988 and 0.05106 | RLU (Time (s) 0): 0 RLU | RLU (Time (s) 2 (Taurocholic Acid 2.016)): 5.076 RLU | RLU (Time (s) 4 (Taurocholic Acid 4.016)): -5.108 RLU | RLU (Time (s) 6 (Taurocholic Acid 6.016)): -10.1397 RLU | RLU (Time (s) 8 (Taurocholic Acid 8.016)): -25.9369 RLU | RLU (Time (s) 12 (Taurocholic Acid 12.016)): -47.2431 RLU | RLU (Time (s) 14 (Taurocholic Acid 14.016)): -37.8259 RLU | RLU (Time (s) 16 (Taurocholic Acid 16.016)): -67.1139 RLU | RLU (Time (s) 18 (Taurocholic Acid 18.016)): -63.8827 RLU | RLU (Time (s) 18.797 (Chenodeoxycholic Acid 18.765)): -68.311 RLU | RLU (Time (s) 20.797 (Chenodeoxycholic Acid 20.781)): -66.196 RLU | RLU (Time (s) 22.797 (Chenodeoxycholic Acid 22.781)): -50.0226 RLU | RLU (Time (s) 24.797 (Chenodeoxycholic Acid 24.781)): -48.2767 RLU | RLU (Time (s) 26.797 (Chenodeoxycholic Acid 26.781)): -41.6616 RLU | RLU (Time (s) 28.797 (Chenodeoxycholic Acid 28.781)): -45.6719 RLU | RLU (Time (s) 30.797 (Chenodeoxycholic Acid 30.781)): -13.6241 RLU | RLU (Time (s) 32.797 (Chenodeoxycholic Acid 32.781)): 14.5625 RLU | RLU (Time (s) 34.797 (Chenodeoxycholic Acid 34.781)): 34.5332 RLU | RLU (Time (s) 36.797 (Chenodeoxycholic Acid 36.781)): 37.8124 RLU | RLU (Time (s) 38.797 (Chenodeoxycholic Acid 38.781)): 50.8625 RLU | RLU (Time (s) 40.797 (Chenodeoxycholic Acid 40.781)): 58.2474 RLU | RLU (Time (s) 42.797 (Chenodeoxycholic Acid 42.781)): 67.9279 RLU | RLU (Time (s) 44.797 (Chenodeoxycholic Acid 44.781)): 76.8016 RLU | RLU (Time (s) 46.797 (Chenodeoxycholic Acid 46.781)): 99.8168 RLU | RLU (Time (s) 48.797 (Chenodeoxycholic Acid 48.781)): 113.593 RLU | RLU (Time (s) 50.797 (Chenodeoxycholic Acid 50.781)): 125.702 RLU | RLU (Time (s) 52.797 (Chenodeoxycholic Acid 52.781)): 143.488 RLU | RLU (Time (s) 54.797 (Chenodeoxycholic Acid 54.781)): 148.335 RLU | RLU (Time (s) 56.797 (Chenodeoxycholic Acid 56.781)): 163.155 RLU | RLU (Time (s) 58.797 (Chenodeoxycholic Acid 58.781)): 176.389 RLU | RLU (Time (s) 60.797 (Chenodeoxycholic Acid 60.781)): 197.723 RLU | RLU (Time (s) 62.797 (Chenodeoxycholic Acid 62.781)): 213.291 RLU | RLU (Time (s) 64.797 (Chenodeoxycholic Acid 64.781)): 213.968 RLU | RLU (Time (s) 66.797 (Chenodeoxycholic Acid 66.781)): 225.512 RLU | RLU (Time (s) 68.797 (Chenodeoxycholic Acid 68.781)): 237.861 RLU | RLU (Time (s) 70.797 (Chenodeoxycholic Acid 70.781)): 234.615 RLU | RLU (Time (s) 72.797 (Chenodeoxycholic Acid 72.781)): 231.58 RLU | RLU (Time (s) 74.797 (Chenodeoxycholic Acid 74.781)): 268.946 RLU | RLU (Time (s) 76.797 (Chenodeoxycholic Acid 76.781)): 267.933 RLU | RLU (Time (s) 78.797 (Chenodeoxycholic Acid 78.781)): 291.733 RLU | RLU (Time (s) 80.797 (Chenodeoxycholic Acid 80.781)): 290.533 RLU | RLU (Time (s) 82.797 (Chenodeoxycholic Acid 82.781)): 307.412 RLU | RLU (Time (s) 84.797 (Chenodeoxycholic Acid 84.781)): 297.633 RLU | RLU (Time (s) 86.797 (Chenodeoxycholic Acid 86.781)): 303.737 RLU | RLU (Time (s) 88.797 (Chenodeoxycholic Acid 88.781)): 299.661 RLU | RLU (Time (s) 90.797 (Chenodeoxycholic Acid 90.781)): 303.944 RLU | RLU (Time (s) 92.797 (Chenodeoxycholic Acid 92.781)): 328.349 RLU | RLU (Time (s) 94.797 (Chenodeoxycholic Acid 94.781)): 307.307 RLU | RLU (Time (s) 96.797 (Chenodeoxycholic Acid 96.781)): 314.559 RLU | RLU (Time (s) 98.797 (Chenodeoxycholic Acid 98.781)): 326.967 RLU | RLU (Time (s) 100.797 (Chenodeoxycholic Acid 100.781)): 302.894 RLU | RLU (Time (s) 102.797 (Chenodeoxycholic Acid 102.781)): 324.498 RLU | RLU (Time (s) 104.797 (Chenodeoxycholic Acid 104.781)): 347.898 RLU | RLU (Time (s) 106.797 (Chenodeoxycholic Acid 106.781)): 338.946 RLU | RLU (Time (s) 108.797 (Chenodeoxycholic Acid 108.781)): 361.614 RLU | RLU (Time (s) 110.797 (Chenodeoxycholic Acid 110.781)): 335.334 RLU | RLU (Time (s) 112.797 (Chenodeoxycholic Acid 112.781)): 367.933 RLU | RLU (Time (s) 114.797 (Chenodeoxycholic Acid 114.781)): 388.996 RLU | RLU (Time (s) 116.797 (Chenodeoxycholic Acid 116.781)): 373.414 RLU | RLU (Time (s) 118.797 (Chenodeoxycholic Acid 118.781)): 374.133 RLU | RLU (Time (s) 120.797 (Chenodeoxycholic Acid 120.781)): 378.298 RLU | RLU (Time (s) 122.797 (Chenodeoxycholic Acid 122.781)): 394.755 RLU | RLU (Time (s) 124.797 (Chenodeoxycholic Acid 124.781)): 385.131 RLU | RLU (Time (s) 126.797 (Chenodeoxycholic Acid 126.781)): 394.257 RLU | RLU (Time (s) 128.797 (Chenodeoxycholic Acid 128.781)): 394.724 RLU | RLU (Time (s) 130.797 (Chenodeoxycholic Acid 130.781)): 379.935 RLU | RLU (Time (s) 132.797 (Chenodeoxycholic Acid 132.781)): 394.817 RLU | RLU (Time (s) 134.797 (Chenodeoxycholic Acid 134.781)): 375.334 RLU | RLU (Time (s) 136.797 (Chenodeoxycholic Acid 136.781)): 397.788 RLU | RLU (Time (s) 137.562 (Taurocholic Acid 137.563, Chenodeoxycholic Acid 137.546)): 382.953 RLU | RLU (Time (s) 143.578 (Taurocholic Acid 143.563, Chenodeoxycholic Acid 143.546)): 394.002 RLU | RLU (Time (s) 149.578 (Taurocholic Acid 149.563, Chenodeoxycholic Acid 149.546)): 363.524 RLU | RLU (Time (s) 155.578 (Taurocholic Acid 155.563, Chenodeoxycholic Acid 155.546)): 370.686 RLU | RLU (Time (s) 161.578 (Taurocholic Acid 161.563, Chenodeoxycholic Acid 161.546)): 390.532 RLU | RLU (Time (s) 167.578 (Taurocholic Acid 167.563, Chenodeoxycholic Acid 167.546)): 378.911 RLU | RLU (Time (s) 173.578 (Taurocholic Acid 173.563, Chenodeoxycholic Acid 173.546)): 356.99 RLU | RLU (Time (s) 179.578 (Taurocholic Acid 179.563, Chenodeoxycholic Acid 179.546)): 351.344 RLU | RLU (Time (s) 191.578 (Taurocholic Acid 191.563, Chenodeoxycholic Acid 191.546)): 317.716 RLU | RLU (Time (s) 197.578 (Taurocholic Acid 197.563, Chenodeoxycholic Acid 197.546)): 291.899 RLU | RLU (Time (s) 209.578 (Taurocholic Acid 209.563, Chenodeoxycholic Acid 209.546)): 252.636 RLU | RLU (Time (s) 221.578 (Taurocholic Acid 221.563, Chenodeoxycholic Acid 221.546)): 195.665 RLU | RLU (Time (s) 233.578 (Taurocholic Acid 233.563, Chenodeoxycholic Acid 233.546)): 155.879 RLU | RLU (Time (s) 239.578 (Taurocholic Acid 239.563, Chenodeoxycholic Acid 239.546)): 121.06 RLU | RLU (Time (s) 245.578 (Taurocholic Acid 245.563, Chenodeoxycholic Acid 245.546)): 124.983 RLU | RLU (Time (s) 293.578 (Taurocholic Acid 293.563, Chenodeoxycholic Acid 293.546)): 26.9674 RLU | RLU (Time (s) 299.578 (Taurocholic Acid 299.563, Chenodeoxycholic Acid 299.546)): 2.882 RLU | RLU (Time (s) 305.578 (Taurocholic Acid 305.563, Chenodeoxycholic Acid 305.546)): 10.8603 RLU | RLU (Time (s) 311.578 (Taurocholic Acid 311.563, Chenodeoxycholic Acid 311.546)): -14.8461 RLU | RLU (Time (s) 317.578 (Taurocholic Acid 317.563, Chenodeoxycholic Acid 317.546)): -4.053 RLU | RLU (Time (s) 323.578 (Taurocholic Acid 323.563, Chenodeoxycholic Acid 323.546)): -64.2935 RLU | RLU (Time (s) 329.578 (Taurocholic Acid 329.563, Chenodeoxycholic Acid 329.546)): -47.603 RLU | RLU (Time (s) 335.578 (Taurocholic Acid 335.563, Chenodeoxycholic Acid 335.546)): -52.8312 RLU | RLU (Time (s) 341.578 (Taurocholic Acid 341.563, Chenodeoxycholic Acid 341.546)): -81.682 RLU | RLU (Time (s) 347.578 (Taurocholic Acid 347.563, Chenodeoxycholic Acid 347.546)): -84.764 RLU | RLU (Time (s) 353.578 (Taurocholic Acid 353.563, Chenodeoxycholic Acid 353.546)): -78.8648 RLU | RLU (Time (s) 359.578 (Taurocholic Acid 359.563, Chenodeoxycholic Acid 359.546)): -73.3268 RLU | Activation threshold concentration TAS2R14 (lowest concentration with significantly increased fluorescence vs empty vector (p < 0.01)): 0.3 µM

— publication PMC10247784, “Physiological activation of human and mouse bitter taste receptors by bile acids” (Communications Biology, 2023)
